Laboratory results from patent US12509482B2, “3′-ketoglycoside compound for the slow release of a volatile alcohol” (GLYCOSCIENCE, S.L., priority 2020, dated 2025).
Where two headings read alike, the source gives them in different places. Blank lines part the entries; values can stand above or below the molecule they belong to.

How the values were obtained:
Format in all cases: physicochemical
[1] = Example 21: release of methanol from substrate A (methyl-O-α-D-3′-ketoglucopyranoside) vs substrate B (methyl-O-α-D-glucopyranoside), 0.1 M phosphate buffer or water, room temperature then 37° C.
Description: In this example, methyl-O-α-D-3′-ketoglucopyranoside and methyl-O-α-D-glucopyranoside were used as model compounds to determine the rate of release of an aliphatic alcohol (methanol) under different conditions.
1 M Stock solutions of sodium dihydrogen phosphate and disodium hydrogen phosphate were prepared in deuterated water (D2O). Stock solutions of 15 mg of methyl-O-α-D-3′-ketoglucopyranoside (substrate A) and methyl-O-α-D-glucopyranoside (substrate B) were each prepared by dissolving in 0.3 mL of D6-DMSO.
Solutions of pH 4.5, 5.8 and 7.4 were prepared by dilution of the appropriate individual or mixture of stock phosphate salt solutions to 0.1 M using a calibrated pH meter.
To eight parallel reaction vials was added 0.05 mL of one of the glycoside substrate solutions in D6-DMSO, 0.5 mL of the appropriate deuterated buffer solution or 0.5 mL of water were indicated in the table below and the mixtures analysed by ^1H-NMR with 128 scans using a 400 MHz instrument to give an initial time reading.
The mixtures were then analysed in the same way after allowing to stand at room temperature for a further 22 h.
The mixtures were then incubated by shaking at 37° C. for a further 44 h and analysed in the same way.

[2] = Example 30: competitive release of alcohol from substrate stock solutions A-D (methyl-O-α-D-3′-ketoglucopyranoside, methyl-O-α-D-glucopyranoside, phenyl-O-β-D-3′-ketoglucopyranoside, phenyl-O-β-D-glucopyranoside, each with 4-nitrophenyl-O-β-D-glucopyranoside), 0.1 M phosphate buffer, 37° C., presence and absence of fresh skin wash; details: for alcohol release (in words): 37° C.
Text: In this example, phenyl-O-β-D-3′-ketoglucopyranoside, methyl-O-α-D-3′-ketoglucopyranoside, phenyl-O-β-D-glucopyranoside, methyl-O-α-D-glucopyranoside and 4-nitrophenyl-O-β-D-glucopyranoside were used as model compounds to determine the rate of release of their respective alcohol rests under different conditions.
The competitive rate of release of methanol or phenol and 4-nitrophenol from a 1:1 stoichiometric mixture of (2R,5S,6S)-3,5-dihydroxy-2-(hydroxymethyl)-6-phenoxytetrahydro-4H-pyran-4-one (phenyl-O-β-D-3′-ketoglucopyranoside) or (2R,3R,5S,6S)-3,5-dihydroxy-2-(hydroxymethyl)-6-methoxytetrahydro-4H-pyran-4-one (methyl-O-α-D-3′ketoglucopyranoside) and their respective 0-glucopyranosides against (2R,3S,4S,5R,6S)-2-(hydroxymethyl)-6-(4-nitrophenoxy)tetrahydro-2H-pyran-3,4,5-triol (4-nitrophenyl-O-β-D-glucopyranoside) in 0.1 M deuterated phosphate buffer solutions at pH 5.7 and 7.0 containing 10% D6-DMSO at room temperature in the presence and absence of fresh skin washing solution was determined.
1 M Stock solutions of sodium dihydrogen phosphate and disodium hydrogen phosphate were prepared in deuterated water (D2O).
4-Nitrophenyl-O-β-D-glucopyranoside (50 mg) was dissolved in D6-DMSO (1 mL) and 0.2 mL of the resultant solution added to each of 10 mg of methyl-O-α-D-3′-ketoglucopyranoside, methyl-O-α-D-glucopyranoside, phenyl-O-β-D-3′-ketoglucopyranoside and phenyl-O-β-D-glucopyranoside to give substrate stock solutions A, B, C and D respectively.
In a typical experiment, a stock solution of fresh skin wash suspension was prepared by swabbing a 25 cm^2 area of cheek skin of a human volunteer by robustly rubbing the area with a cotton wool gauze (5×5 cm^2) soaked in D2O (12.5 mL) for 1 minute and then resuspending the gauze in the D2O solution, rapidly shaking and removing the gauze after squeezing out as much liquid as possible with a spatula.
1 M Stock solutions of phosphate buffer, pH 5.7 and 7.0 were prepared by appropriately mixing 1 M stock phosphate salts solutions to the correct pH as determined using a calibrated pH meter.
Half of each buffer stock solution was diluted ten times with D2O and the other with the above skin washing stock solution to give a 0.1 M phosphate buffer in D2O with a final pH of 5.7, 0.1 M phosphate buffer in D2O with a final pH of 7.0, a 0.1 M phosphate buffer in skin wash solution with a final pH of 5.7 and a 0.1 M phosphate buffer in skin wash solution with a final pH of 7.0.
To sixteen parallel reaction vials, was added 0.45 mL of low or high pH 0.1M phosphate buffer in D2O or 0.45 mL of low or high pH 0.1M phosphate buffer in skin wash solution followed by 0.05 mL of one of the glycoside substrate solutions in D6-DMSO and the mixtures incubated by shaking at 37° C. After times indicated in the table below, the mixtures where analysed by ^1H-NMR with 128 scans using a 400 MHz instrument and the colour observed visually, with the results shown in Table XVII: […]

[3] = Description: alcohol release from model compounds (III), (IV) and compound (V) in buffer, water and skin washings; details: for phenol release (in words): after 60 h
[4] = Example 13: release of 4-nitrophenol from substrate A (4-nitrophenyl-O-β-D-3′-ketoglucopyranoside) vs substrate B (4-nitrophenyl-O-β-D-glucopyranoside), 0.1 M deuterated phosphate buffer or water, 10% D6-DMSO, room temperature; details: for composition by 1H-NMR (aromatic signals): approximately 26 h; for 4-nitrophenol release (in words): varying solution pH, room temperature, 0.5 mL of aqueous solution
Description: In this example, 4-nitrophenyl-O-β-D-3′-ketoglucopyranoside and 4-nitrophenyl-O-beta-D-glucopyranoside were used as model compounds to determine the rate of release of an aromatic alcohol (4-nitrophenol) under different conditions.
Rate of release of 4-nitrophenol from (2R,3R,5S,6S)-3,5-dihydroxy-2-(hydroxymethyl)-6-(4-nitrophenoxy)tetrahydro-4H-pyran-4-one (4-nitrophenyl-O-β-D-3′-ketoglucopyranoside) was determined in comparison to (2R,3S,4S,5R,6S)-2-(hydroxymethyl)-6-(4-nitrophenoxy)tetrahydro-2H-pyran-3,4,5-triol (para-nitrophenyl-O-β-D-glucopyranoside) in 0.1 M deuterated phosphate buffer solutions of differing pH containing 10% D6-DMSO or in water containing 10% D6-DMSO at room temperature.
1 M Stock solutions of sodium dihydrogen phosphate and disodium hydrogen phosphate were prepared in deuterated water (D2O). Stock solutions of 25 mg of 4-nitrophenyl-O-β-D-3′-ketoglucopyranoside (substrate A), 25 mg of 4-nitrophenyl-O-β-D-glucopyranoside (substrate B) in 0.5 mL of D6-DMSO were each prepared and a stock solution of 11 mg of 4-nitrophenol in the same volume of D6-DMSO for visual comparison.
Solutions of pH 4.5, 5.8, 7.4 and 9.5 were prepared by dilution of the appropriate individual or mixture of stock phosphate salt solutions to 0.1 M using a calibrated pH meter.
To ten parallel reaction vials was added 0.05 mL of one of the glycoside substrate stock solutions in D6-DMSO, 0.5 mL of the appropriate deuterated buffer solution or 0.5 mL of water were indicated in Table I below. The reaction vials were allowed to stand at room temperature and the colour of the solutions recorded by visual observation relative to the colour of authentic 4-nitrophenol solutions diluted in the same way, as shown in Table I:
After approximately 26 h, reactions 2 to 5 were all analysed by ^1H-NM R using 128 scans on a 400 MHz instrument.

[5] = Example 22: competitive release of para-nitrophenol from an approximately equimolar solution of 4-nitrophenyl-O-β-D- and -O-α-D-3′-ketoglucopyranoside, 32° C., 1H NMR integrals
Text: In this example the competitive rate of release of para-nitrophenol from an approximately equimolar solution of (2R,5S,6S)-3,5-dihydroxy-2-(hydroxymethyl)-6-(4-nitrophenoxy)tetrahydro-4H-pyran-4-one (4-nitrophenyl-O-β-D-3′-ketoglucopyranoside) and (2R,5S,6S)-3,5-dihydroxy-2-(hydroxymethyl)-6-(4-nitrophenoxy)tetrahydro-4H-pyran-4-one (4-nitrophenyl-O-α-D-3′-ketoglucopyranoside) in D2O containing 1.5% D6-DMSO or in 0.1 M deuterated phosphate buffer, pH 5.8 containing 1.5% D6-DMSO or in D2O was determined.
A solution containing approximately 2 mg each of 4-nitrophenyl-O-β-D-3′-ketoglucopyranoside and 4-nitrophenyl-O-α-D-3′-ketoglucopyranoside was prepared in 1 mL of D2O containing 3.3% v/v D6-DMSO. To two 0.375 mL portions of the resultant solution was added either D2O (0.5 mL) or 0.1M sodium phosphate buffer, pH 5.8 (0.5 mL) to given reactions 1 and 2 respectively. The resultant mixtures were analysed by ^1H NMR directly following preparation then incubated at 32° C./80 rpm and periodically analysed by ^1H NMR at recorded time points.
The change in the ratio between the integrals of the anomeric protons of each ketoglucoside and between the were sum of the anomeric protons and the anomeric protons of each ketoglucoside with time are shown in Table IX: […]

[6] = pH 5.7, presence and absence of skin washing

- alcohol release (in words) [2, 6]: no reaction is observed
- methanol release (in words) ([3]; 0.1M sodium phosphate buffer in D2O, pH 7.0, 37° C., after 36 h): slowly liberates methanol
SMILES: CO[C@H]1O[C@H](CO)[C@@H](O)C(=O)[C@H]1O [methyl-O-α-D-3′-ketoglucopyranoside, (2R,3R,5S,6S)-3,5-dihydroxy-2-(hydroxymethyl)-6-methoxytetrahydro-4H-pyran-4-one]
- stability / methanol release (in words) ([1]; 37° C., pH range tested and water): stable at pH 4.5 and 5.8, but very slowly generates methanol at pH 7.4
- stability (in words) ([3]; deionised water, acidic pH): remained stable in deionised water and relatively stable at acidic pH
- methanol release in the presence of skin washings (in words) ([3]; same temperature and pH (37° C., pH 7.0)): significantly more methanol than had been observed in buffer alone

- stability (in words) ([2]; pH 5.7): stable under all conditions tested
SMILES: OC[C@H]1O[C@@H](Oc2ccccc2)[C@H](O)[C@@H](O)[C@@H]1O [phenyl-O-β-D-glucopyranoside]

- phenol release (in words) ([3]; buffer alone): a small quantity of conjugate remained
- phenol release (in words) ([3]; in the presence of skin washing): complete release of phenol
SMILES: O=C1[C@@H](O)[C@H](Oc2ccccc2)O[C@H](CO)[C@H]1O [phenyl-O-β-D-3′-ketoglucopyranoside, (2R,5S,6S)-3,5-dihydroxy-2-(hydroxymethyl)-6-phenoxytetrahydro-4H-pyran-4-one]
- alcohol release (in words) [2, 6]: reacts slower than at pH 7 and to the same extent in the presence and absence of skin washing

- composition by 1H-NMR (aromatic signals) ([4]; reaction 2, pH 4.5): only starting material
- ratio of the sum of aromatic/β-ketoglucoside proton integrals ([5]; Reaction 1, D2O, 0 h): 6.8
- ratio of the sum of aromatic/β-ketoglucoside proton integrals ([5]; Reaction 1, D2O, 20 h): 8.3
- ratio of the sum of aromatic/β-ketoglucoside proton integrals ([5]; Reaction 1, D2O, 45 h): 8.8
- ratio of the sum of aromatic/β-ketoglucoside proton integrals ([5]; Reaction 1, D2O, 143 h): 8.3
- ratio of the sum of aromatic/β-ketoglucoside proton integrals ([5]; Reaction 2, 0.1M sodium phosphate buffer, pH 5.8, 0 h): 6.6
- ratio of the sum of aromatic/β-ketoglucoside proton integrals ([5]; Reaction 2, 0.1M sodium phosphate buffer, pH 5.8, 20 h): 7.2
- ratio of the sum of aromatic/β-ketoglucoside proton integrals ([5]; Reaction 2, 0.1M sodium phosphate buffer, pH 5.8, 45 h): 9.7
- ratio of the sum of aromatic/β-ketoglucoside proton integrals ([5]; Reaction 2, 0.1M sodium phosphate buffer, pH 5.8, 143 h): 10.6
SMILES: O=C1[C@@H](O)[C@H](Oc2ccc([N+](=O)[O-])cc2)O[C@H](CO)[C@H]1O [(2R,5S,6S)-3,5-dihydroxy-2-(hydroxymethyl)-6-(4-nitrophenoxy)tetrahydro-4H-pyran-4-one]
- composition by 1H-NMR (aromatic signals) ([4]; reaction 3, pH 5.8): a mixture to starting material and 4-nitrophenol
- composition by 1H-NMR (aromatic signals) ([4]; reaction 4, pH 7.4): almost entirely 4-nitrophenol with a trace of starting material
- composition by 1H-NMR (aromatic signals) ([4]; reaction 5, pH 9.5): almost entirely 4-nitrophenol with a trace of starting material
- 4-nitrophenol release (in words) [4]: from no release at low pH to the delivery of μg quantities of 4-nitrophenol per minute

SMILES: CO[C@H]1O[C@H](CO)[C@@H](O)[C@H](O)[C@H]1O [methyl-O-α-D-glucopyranoside]
- stability / methanol release (in words) [1]: remains stable over the pH range tested and in water
- stability (in words) ([2]; all conditions tested (pH 5.7 and 7.0, with and without skin washing, 37° C.)): stable under all conditions tested

- 4-nitrophenol release (in words) [4]: releases virtually no 4-nitrophenol
SMILES: O=[N+]([O-])c1ccc(O[C@@H]2O[C@H](CO)[C@@H](O)[C@H](O)[C@H]2O)cc1 [4-nitrophenyl-O-β-D-glucopyranoside, (2R,3S,4S,5R,6S)-2-(hydroxymethyl)-6-(4-nitrophenoxy)tetrahydro-2H-pyran-3,4,5-triol]
- alcohol release (in words) ([2]; pH 7, presence and absence of skin washings): release some 4-nitrophenol visually at pH 7 and typically to a greater extent in the presence of skin washings, but to such a low extent that no change was observed by NMR
